Data from PMC4979471 (Cell Death Discovery, 2015).
Read-outs that look alike come from different tables or passages of the source.

Assays:
Assay in all cases: Kinase selectivity, P33-radiolabeled assay
Assay type in all cases: biochemical
CDK4/cyclin D1 = molecular target: T1, CDK4/cyclin D1 (Homo sapiens, UniProt P11802); details: 10 μM ATP
T1 construct: purchased Reaction Biology Corp
How it was run: (§1)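 Activity relative to DMSO controls (%) was measured for compound at 10 μM. Assays ran at 10 μM ATP, in duplicate.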

CK1epsilon = molecular target: T2, CK1epsilon (Homo sapiens, UniProt P49674); details: 10 μM ATP
T2 construct: purchased Reaction Biology Corp
T2 sequence (P49674 whole entry): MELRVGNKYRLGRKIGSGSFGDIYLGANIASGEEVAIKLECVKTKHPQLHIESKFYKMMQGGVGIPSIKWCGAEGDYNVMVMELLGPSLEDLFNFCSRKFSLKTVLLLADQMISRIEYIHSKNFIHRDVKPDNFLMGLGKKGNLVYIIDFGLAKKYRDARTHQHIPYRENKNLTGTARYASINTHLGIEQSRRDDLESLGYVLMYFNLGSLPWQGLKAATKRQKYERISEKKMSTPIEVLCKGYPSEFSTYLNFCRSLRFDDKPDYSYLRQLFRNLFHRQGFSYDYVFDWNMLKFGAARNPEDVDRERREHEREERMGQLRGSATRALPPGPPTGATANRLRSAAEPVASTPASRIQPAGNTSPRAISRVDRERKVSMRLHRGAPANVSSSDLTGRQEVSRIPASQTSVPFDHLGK
How it was run: as §1

CK1g2 = molecular target: T3, CK1g2 (Homo sapiens, UniProt P78368); details: 10 μM ATP
T3 construct: purchased Reaction Biology Corp
T3 sequence (P78368 whole entry): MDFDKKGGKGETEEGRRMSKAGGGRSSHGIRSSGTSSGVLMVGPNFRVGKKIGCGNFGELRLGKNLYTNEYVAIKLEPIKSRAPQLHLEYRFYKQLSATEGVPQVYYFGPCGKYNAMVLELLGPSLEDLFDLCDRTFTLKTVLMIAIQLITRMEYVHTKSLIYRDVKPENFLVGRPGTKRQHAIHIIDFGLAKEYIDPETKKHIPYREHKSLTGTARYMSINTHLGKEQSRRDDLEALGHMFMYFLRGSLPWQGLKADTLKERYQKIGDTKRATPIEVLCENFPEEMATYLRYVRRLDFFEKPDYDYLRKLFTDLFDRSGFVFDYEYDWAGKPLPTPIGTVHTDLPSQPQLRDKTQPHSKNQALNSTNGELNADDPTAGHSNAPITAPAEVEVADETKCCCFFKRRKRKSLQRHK
How it was run: as §1

EPHA7 = molecular target: T4, EPHA7 (Homo sapiens, UniProt Q15375); details: 10 μM ATP
T4 construct: purchased Reaction Biology Corp
T4 sequence (Q15375 28-998): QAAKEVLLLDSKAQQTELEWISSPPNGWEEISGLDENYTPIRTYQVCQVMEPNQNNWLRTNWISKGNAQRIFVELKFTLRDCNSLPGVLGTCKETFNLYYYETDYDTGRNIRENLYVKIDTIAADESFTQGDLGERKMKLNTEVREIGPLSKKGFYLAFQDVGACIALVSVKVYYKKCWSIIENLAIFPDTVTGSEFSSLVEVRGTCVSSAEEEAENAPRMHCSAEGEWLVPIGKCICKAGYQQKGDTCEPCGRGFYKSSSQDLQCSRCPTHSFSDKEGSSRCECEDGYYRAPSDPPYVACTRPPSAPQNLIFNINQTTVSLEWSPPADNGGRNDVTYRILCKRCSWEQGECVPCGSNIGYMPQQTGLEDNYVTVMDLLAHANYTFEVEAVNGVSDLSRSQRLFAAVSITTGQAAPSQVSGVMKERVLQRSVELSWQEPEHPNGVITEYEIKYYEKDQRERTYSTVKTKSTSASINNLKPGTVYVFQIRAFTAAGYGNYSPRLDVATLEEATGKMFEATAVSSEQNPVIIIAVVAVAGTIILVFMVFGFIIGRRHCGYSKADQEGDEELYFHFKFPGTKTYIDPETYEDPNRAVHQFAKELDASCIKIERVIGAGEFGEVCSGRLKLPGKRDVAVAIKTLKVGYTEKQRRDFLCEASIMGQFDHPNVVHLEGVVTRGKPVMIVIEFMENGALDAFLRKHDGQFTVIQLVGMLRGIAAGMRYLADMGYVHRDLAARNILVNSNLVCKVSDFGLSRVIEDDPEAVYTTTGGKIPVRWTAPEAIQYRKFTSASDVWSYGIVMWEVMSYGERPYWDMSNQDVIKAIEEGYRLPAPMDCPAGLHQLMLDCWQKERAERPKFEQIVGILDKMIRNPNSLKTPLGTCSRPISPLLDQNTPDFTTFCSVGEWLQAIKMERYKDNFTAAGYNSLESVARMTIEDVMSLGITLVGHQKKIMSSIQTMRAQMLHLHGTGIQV
How it was run: as §1

ERBB4/HER4 = molecular target: T5, ERBB4/HER4 (Homo sapiens, UniProt Q15303); details: 10 μM ATP
T5 construct: purchased Reaction Biology Corp
How it was run: as §1

HIPK2 = molecular target: T6, HIPK2 (Homo sapiens, UniProt Q9H2X6); details: 10 μM ATP
T6 construct: purchased Reaction Biology Corp
How it was run: as §1

KHS/MAP4K5 = molecular target: T7, KHS/MAP4K5 (Homo sapiens, UniProt Q9Y4K4); details: 10 μM ATP
T7 construct: purchased Reaction Biology Corp
T7 sequence (Q9Y4K4 whole entry): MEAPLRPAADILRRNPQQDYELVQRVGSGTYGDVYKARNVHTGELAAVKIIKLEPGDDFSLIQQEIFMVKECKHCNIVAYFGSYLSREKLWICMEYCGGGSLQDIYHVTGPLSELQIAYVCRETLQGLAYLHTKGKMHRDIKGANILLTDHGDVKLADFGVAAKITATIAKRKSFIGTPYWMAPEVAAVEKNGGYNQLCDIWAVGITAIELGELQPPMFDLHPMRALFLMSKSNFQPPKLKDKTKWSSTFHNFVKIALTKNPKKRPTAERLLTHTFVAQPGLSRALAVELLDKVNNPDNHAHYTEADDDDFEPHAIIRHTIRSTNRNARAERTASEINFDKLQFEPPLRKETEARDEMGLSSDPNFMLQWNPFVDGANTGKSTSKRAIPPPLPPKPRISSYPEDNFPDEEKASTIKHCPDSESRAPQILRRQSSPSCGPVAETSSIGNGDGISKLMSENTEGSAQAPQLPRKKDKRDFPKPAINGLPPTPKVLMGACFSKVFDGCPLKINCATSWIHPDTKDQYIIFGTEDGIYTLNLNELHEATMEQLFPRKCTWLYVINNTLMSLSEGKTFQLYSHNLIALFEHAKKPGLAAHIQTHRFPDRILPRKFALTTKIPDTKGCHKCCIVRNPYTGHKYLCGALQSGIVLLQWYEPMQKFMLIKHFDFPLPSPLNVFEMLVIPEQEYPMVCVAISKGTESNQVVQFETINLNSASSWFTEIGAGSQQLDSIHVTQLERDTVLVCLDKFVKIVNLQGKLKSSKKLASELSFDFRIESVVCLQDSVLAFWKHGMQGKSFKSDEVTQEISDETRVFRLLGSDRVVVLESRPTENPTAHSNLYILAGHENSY
How it was run: as §1

MEK2 = molecular target: T8, MEK2 (Homo sapiens, UniProt P36507)
T8 construct: purchased Reaction Biology Corp
T8 sequence (P36507 whole entry): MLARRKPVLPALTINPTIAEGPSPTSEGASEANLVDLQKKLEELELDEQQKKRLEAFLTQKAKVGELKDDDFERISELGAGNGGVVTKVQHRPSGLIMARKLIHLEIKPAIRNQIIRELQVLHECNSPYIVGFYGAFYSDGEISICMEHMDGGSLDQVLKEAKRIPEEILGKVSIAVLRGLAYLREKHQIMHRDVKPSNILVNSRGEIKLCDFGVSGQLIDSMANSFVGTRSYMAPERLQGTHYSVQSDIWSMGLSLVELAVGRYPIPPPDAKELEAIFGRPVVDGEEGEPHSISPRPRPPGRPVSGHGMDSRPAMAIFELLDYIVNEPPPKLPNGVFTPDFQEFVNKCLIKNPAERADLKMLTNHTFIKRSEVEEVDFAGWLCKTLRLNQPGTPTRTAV
How it was run: as §1

PKCzeta = molecular target: T9, PKCzeta (Homo sapiens, UniProt Q05513); details: 10 μM ATP
T9 construct: purchased Reaction Biology Corp
T9 sequence (Q05513 1-592): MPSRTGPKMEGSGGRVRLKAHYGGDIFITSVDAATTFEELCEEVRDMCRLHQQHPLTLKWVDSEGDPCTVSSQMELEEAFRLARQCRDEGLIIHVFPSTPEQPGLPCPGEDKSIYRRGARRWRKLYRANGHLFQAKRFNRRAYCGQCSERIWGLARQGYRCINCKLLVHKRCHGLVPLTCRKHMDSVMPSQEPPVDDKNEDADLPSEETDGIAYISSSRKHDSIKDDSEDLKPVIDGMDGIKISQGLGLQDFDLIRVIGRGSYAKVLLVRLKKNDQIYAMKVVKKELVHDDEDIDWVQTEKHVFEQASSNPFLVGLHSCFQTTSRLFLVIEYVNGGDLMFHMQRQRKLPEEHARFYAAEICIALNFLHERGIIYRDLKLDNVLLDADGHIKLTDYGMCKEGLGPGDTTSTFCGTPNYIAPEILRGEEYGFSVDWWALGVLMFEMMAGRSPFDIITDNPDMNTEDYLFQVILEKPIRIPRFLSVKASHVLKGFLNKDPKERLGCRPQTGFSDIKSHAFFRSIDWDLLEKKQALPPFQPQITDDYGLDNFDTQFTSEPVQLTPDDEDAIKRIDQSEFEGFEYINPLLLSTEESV
How it was run: as §1

SLK/STK2 = molecular target: T10, SLK/STK2 (Homo sapiens, UniProt Q9H2G2); details: 10 μM ATP
T10 construct: purchased Reaction Biology Corp
T10 sequence (Q9H2G2 whole entry): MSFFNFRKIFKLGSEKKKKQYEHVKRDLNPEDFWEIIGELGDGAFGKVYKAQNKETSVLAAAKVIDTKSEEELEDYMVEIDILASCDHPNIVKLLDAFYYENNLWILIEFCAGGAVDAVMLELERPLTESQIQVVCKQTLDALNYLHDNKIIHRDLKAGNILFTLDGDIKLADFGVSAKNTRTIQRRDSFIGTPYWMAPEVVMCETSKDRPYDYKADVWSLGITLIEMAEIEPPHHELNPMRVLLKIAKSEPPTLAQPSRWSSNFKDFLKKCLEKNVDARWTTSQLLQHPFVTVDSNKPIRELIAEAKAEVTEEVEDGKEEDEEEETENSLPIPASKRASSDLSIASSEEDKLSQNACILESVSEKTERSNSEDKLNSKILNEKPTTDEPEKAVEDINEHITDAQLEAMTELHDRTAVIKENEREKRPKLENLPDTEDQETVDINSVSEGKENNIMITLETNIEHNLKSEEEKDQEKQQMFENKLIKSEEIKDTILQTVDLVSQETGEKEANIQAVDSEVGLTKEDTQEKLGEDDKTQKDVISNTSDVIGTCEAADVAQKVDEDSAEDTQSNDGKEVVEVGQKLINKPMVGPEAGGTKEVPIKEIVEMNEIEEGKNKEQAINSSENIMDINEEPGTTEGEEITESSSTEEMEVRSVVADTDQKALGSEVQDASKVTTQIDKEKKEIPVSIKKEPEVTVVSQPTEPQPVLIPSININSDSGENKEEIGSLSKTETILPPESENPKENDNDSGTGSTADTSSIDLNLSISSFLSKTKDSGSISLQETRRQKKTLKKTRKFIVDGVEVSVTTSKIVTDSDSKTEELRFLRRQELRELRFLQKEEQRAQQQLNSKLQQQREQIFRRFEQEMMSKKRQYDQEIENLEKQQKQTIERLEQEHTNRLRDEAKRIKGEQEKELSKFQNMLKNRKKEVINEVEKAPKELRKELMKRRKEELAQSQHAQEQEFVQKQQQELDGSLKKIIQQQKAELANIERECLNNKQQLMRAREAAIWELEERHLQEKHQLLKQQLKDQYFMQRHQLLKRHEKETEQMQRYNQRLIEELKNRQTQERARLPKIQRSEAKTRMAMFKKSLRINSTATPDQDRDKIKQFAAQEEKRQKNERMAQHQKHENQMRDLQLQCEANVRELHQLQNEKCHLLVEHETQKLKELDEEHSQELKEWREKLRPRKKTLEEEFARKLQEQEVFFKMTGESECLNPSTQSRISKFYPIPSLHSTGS
How it was run: as §1

TAOK3/JIK = molecular target: T11, TAOK3/JIK (Homo sapiens, UniProt Q9H2K8); details: 10 μM ATP
T11 construct: purchased Reaction Biology Corp
T11 sequence (Q9H2K8 1-898): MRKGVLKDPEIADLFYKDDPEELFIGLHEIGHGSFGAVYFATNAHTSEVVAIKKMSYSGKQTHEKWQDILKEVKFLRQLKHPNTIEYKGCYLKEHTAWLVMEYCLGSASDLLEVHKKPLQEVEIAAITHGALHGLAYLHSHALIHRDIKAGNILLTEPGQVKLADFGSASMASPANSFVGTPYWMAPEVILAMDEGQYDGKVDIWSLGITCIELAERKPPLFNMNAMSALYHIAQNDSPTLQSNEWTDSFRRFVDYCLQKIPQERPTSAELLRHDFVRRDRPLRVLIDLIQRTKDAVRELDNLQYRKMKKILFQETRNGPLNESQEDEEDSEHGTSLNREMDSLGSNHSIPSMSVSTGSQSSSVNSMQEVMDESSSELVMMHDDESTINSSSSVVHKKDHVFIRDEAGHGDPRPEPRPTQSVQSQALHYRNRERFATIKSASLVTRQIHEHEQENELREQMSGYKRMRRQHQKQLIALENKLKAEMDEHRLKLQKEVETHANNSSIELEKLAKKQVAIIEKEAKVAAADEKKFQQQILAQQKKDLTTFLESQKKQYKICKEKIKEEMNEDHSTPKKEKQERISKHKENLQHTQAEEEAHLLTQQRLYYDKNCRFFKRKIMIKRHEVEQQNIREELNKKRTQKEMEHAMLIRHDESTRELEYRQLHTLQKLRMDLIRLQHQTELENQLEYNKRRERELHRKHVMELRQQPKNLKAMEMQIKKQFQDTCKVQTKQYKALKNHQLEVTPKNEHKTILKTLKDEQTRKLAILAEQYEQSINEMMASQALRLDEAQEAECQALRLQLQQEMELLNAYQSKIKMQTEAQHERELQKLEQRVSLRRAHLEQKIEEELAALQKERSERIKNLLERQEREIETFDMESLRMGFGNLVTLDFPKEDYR
How it was run: as §1

TIE2/TEK = molecular target: T12, TIE2/TEK (Homo sapiens, UniProt Q02763); details: 10 μM ATP
T12 construct: purchased Reaction Biology Corp
How it was run: as §1

[1] = read-out: % Enzyme Activity (relative to DMSO controls) AVG
[2] = read-out: % Enzyme Activity (relative to DMSO controls) Data 1
[3] = read-out: % Enzyme Activity (relative to DMSO controls) Data 2

T1 sequence (P11802 whole entry): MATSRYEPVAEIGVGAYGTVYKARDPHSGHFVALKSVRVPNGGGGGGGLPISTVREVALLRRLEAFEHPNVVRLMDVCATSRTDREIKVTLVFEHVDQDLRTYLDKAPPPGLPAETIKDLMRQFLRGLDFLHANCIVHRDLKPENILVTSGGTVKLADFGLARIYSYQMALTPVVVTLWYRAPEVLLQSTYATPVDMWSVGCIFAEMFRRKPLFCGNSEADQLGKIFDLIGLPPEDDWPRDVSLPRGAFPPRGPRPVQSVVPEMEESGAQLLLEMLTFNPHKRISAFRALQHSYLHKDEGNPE
T1 sequence (P24385 whole entry partner): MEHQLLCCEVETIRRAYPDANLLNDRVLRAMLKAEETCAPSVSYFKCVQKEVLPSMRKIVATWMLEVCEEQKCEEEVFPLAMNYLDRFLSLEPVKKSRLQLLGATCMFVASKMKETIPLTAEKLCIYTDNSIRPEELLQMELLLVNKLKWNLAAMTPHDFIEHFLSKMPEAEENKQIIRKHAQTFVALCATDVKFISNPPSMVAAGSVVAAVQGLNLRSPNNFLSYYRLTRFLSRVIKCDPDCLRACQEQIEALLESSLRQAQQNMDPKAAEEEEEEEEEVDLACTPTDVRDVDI

Compound CC(C)(C)C(=O)N1N=CC[C@H]1c1ccccc1 [GSK′963] has a remaining activity at 10 µM (CDK4/cyclin D1; [1]) of 96.7%, a remaining activity at 10 µM (CDK4/cyclin D1; [2]) of 94.5% and a remaining activity at 10 µM (CDK4/cyclin D1; [3]) of 98.9%. It also gave a remaining activity at 10 µM (CK1epsilon; [1]) of 93.4%, a remaining activity at 10 µM (CK1epsilon; [2]) of 96.7% and a remaining activity at 10 µM (CK1epsilon; [3]) of 90.2%. For the same compound, the remaining activity at 10 µM (CK1g2; [1]) was 112%, the remaining activity at 10 µM (CK1g2; [2]) was 112% and the remaining activity at 10 µM (CK1g2; [3]) was 111%. It also gave a remaining activity at 10 µM (EPHA7; [1]) of 111%, a remaining activity at 10 µM (EPHA7; [2]) of 109% and a remaining activity at 10 µM (EPHA7; [3]) of 112%. For the same compound, the remaining activity at 10 µM (ERBB4/HER4; [1]) was 102%, the remaining activity at 10 µM (ERBB4/HER4; [2]) was 101% and the remaining activity at 10 µM (ERBB4/HER4; [3]) was 104%. For the same compound, the remaining activity at 10 µM (HIPK2; [1]) was 103%, the remaining activity at 10 µM (HIPK2; [2]) was 101% and the remaining activity at 10 µM (HIPK2; [3]) was 104%. For the same compound, the remaining activity at 10 µM (KHS/MAP4K5; [1]) was 93.8%, the remaining activity at 10 µM (KHS/MAP4K5; [2]) was 91.7% and the remaining activity at 10 µM (KHS/MAP4K5; [3]) was 96%. It also gave a remaining activity at 10 µM (MEK2; 10 uM, 10 μM ATP, read-out: % Enzyme Activity (relative to DMSO controls) AVG) of 102%, a remaining activity at 10 µM (MEK2; 10 uM, 10 μM ATP, read-out: % Enzyme Activity (relative to DMSO controls) Data 2) of 103% and a remaining activity at 10 µM (MEK2; [2]) of 101%. The remaining activity at 10 µM (PKCzeta; [1]) was 105%, the remaining activity at 10 µM (PKCzeta; [2]) was 105% and the remaining activity at 10 µM (PKCzeta; [3]) was 105%. The remaining activity at 10 µM (SLK/STK2; [1]) was 86.9%, the remaining activity at 10 µM (SLK/STK2; [2]) was 85.3% and the remaining activity at 10 µM (SLK/STK2; [3]) was 88.5%. For the same compound, the remaining activity at 10 µM (TAOK3/JIK; [1]) was 98.2%, the remaining activity at 10 µM (TAOK3/JIK; [2]) was 99.2% and the remaining activity at 10 µM (TAOK3/JIK; [3]) was 97.3%. It also gave a remaining activity at 10 µM (TIE2/TEK; [1]) of 98.1%, a remaining activity at 10 µM (TIE2/TEK; [2]) of 95.5% and a remaining activity at 10 µM (TIE2/TEK; [3]) of 101%.
